TGI and GI50 data for 17 compounds are collected here from PubChem BioAssay (NCI).

Among the test systems are SK-OV-3 ovarian; SW-620 colon; SF-539 CNS; UO-31 renal; OVCAR-4 ovarian; K-562 leukemia; RXF 393 renal; UACC-257 melanoma; DU-145 prostate.
What all share (experiment): DTP human tumour cell line panel, 48 h

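Cultured in 96-well plates, cells were exposed to test compound for 48 hours across five concentrations. GI50 marks 50% less growth. TGI marks complete inhibition of growth.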

As to `C[C@]12CCC(=O)C=C1CC[C@@H]1C2CC[C@@]2(C)C1CC[C@@H]2OC(=O)C12OC1CCC2=O` (stereo partly specified), the TGI (commonly the concentration at which net growth stops) in the assay on SK-OV-3 ovarian is greater than 100 µM; in the assay with SW-620 colon it was 32.1 µM; with SF-539 CNS, 36.6 µM; in the assay with UO-31 renal, 30.3 µM; in the assay on OVCAR-4 ovarian, 41.5 µM; with K-562 leukemia, 59.4 µM. Also, the TGI in the assay on RXF 393 renal was 16.8 µM; in the assay with UACC-257 melanoma, 35.9 µM.
On to `CCOC(=O)[C@@]12NN=N[C@@H]1[C@H]1CO[C@H](c3ccccc3)N1C2=O`, for which the TGI in the assay on SK-OV-3 ovarian amounted to 33.6 µM; in the assay on SW-620 colon, 25.5 µM; in the assay with SF-539 CNS, 25.3 µM; in the assay with OVCAR-4 ovarian it was 32.4 µM; with DU-145 prostate it was 34.3 µM; in the assay on RXF 393 renal it was 13.9 µM. Also, the total growth inhibition concentration (TGI) in the assay on UACC-257 melanoma came out at 19.7 µM.
Take `O=c1[nH]c(-c2ccc(Cl)cc2)cc2ccsc12`: the TGI with SK-OV-3 ovarian is 77.9 µM; in the assay on SW-620 colon, greater than 100 µM; with UO-31 renal, greater than 100 µM; with OVCAR-4 ovarian it was greater than 100 µM; in the assay on DU-145 prostate it was 6.68 µM; in the assay with K-562 leukemia, greater than 100 µM. Also, the total growth inhibition concentration (TGI) in the assay on RXF 393 renal is greater than 100 µM; in the assay with UACC-257 melanoma, 7.87 µM.
Turning to `COc1cc2nc3n(c(=O)c2cc1OC)CCCCC3`, the TGI with SK-OV-3 ovarian, in the assay with SW-620 colon, in the assay on UO-31 renal, in the assay with OVCAR-4 ovarian, in the assay with DU-145 prostate and in the assay on K-562 leukemia was greater than 100 µM throughout. The total growth inhibition concentration (TGI) in the assay with RXF 393 renal and in the assay on UACC-257 melanoma was greater than 100 µM in each case.
Regarding `O=C1[C@H](O)[C@@H]2CCC[C@@]23CCCN13`, the TGI with SK-OV-3 ovarian, in the assay with SW-620 colon, with SF-539 CNS, in the assay on UO-31 renal, in the assay with DU-145 prostate and in the assay on K-562 leukemia was greater than 100 µM each time. In addition, the TGI in the assay on RXF 393 renal and in the assay on UACC-257 melanoma was greater than 100 µM throughout.
`Cn1c(=O)oc2cc(C(=S)N3CCCCC3)ccc21`: the total growth inhibition concentration (TGI) in the assay with SK-OV-3 ovarian, in the assay with SW-620 colon, in the assay with SF-539 CNS, in the assay with DU-145 prostate, in the assay with K-562 leukemia and in the assay with RXF 393 renal was greater than 100 µM throughout. For the same compound, the TGI with UACC-257 melanoma was greater than 100 µM.
`COc1cc(O)c2c(=O)c(OC)c(-c3ccc(OC)c(OC)c3)oc2c1.[Sn]`: the TGI in the assay on SK-OV-3 ovarian, in the assay with SW-620 colon, in the assay with SF-539 CNS, in the assay on UO-31 renal, in the assay on OVCAR-4 ovarian and in the assay with DU-145 prostate was greater than 100 µM throughout. For the same compound, the concentration for total growth inhibition (TGI) in the assay with K-562 leukemia and in the assay on RXF 393 renal was greater than 100 µM in each case. The GI50 (in general, the concentration giving 50% growth inhibition) in the assay on OVCAR-4 ovarian is 8.24 µM; in the assay with DU-145 prostate, greater than 100 µM; in the assay on K-562 leukemia, greater than 100 µM.
For `COC(=O)CN(CC1O[C@@H]2OC(C)(C)O[C@@H]2C1NC(C)=O)C(=O)OCc1ccccc1` (stereo partly specified), the TGI in the assay on SK-OV-3 ovarian, with SW-620 colon, with SF-539 CNS, with UO-31 renal, in the assay with OVCAR-4 ovarian and in the assay with DU-145 prostate was greater than 100 µM in each case. In addition, the TGI in the assay with K-562 leukemia and in the assay with UACC-257 melanoma was greater than 100 µM in each case.
`CCSc1[nH]c(NC(=NC(C)C)NC(=O)c2ccccc2)c(C(N)=O)c1C(N)=O`: the TGI in the assay with SK-OV-3 ovarian, with SW-620 colon, in the assay on OVCAR-4 ovarian, with DU-145 prostate, in the assay with K-562 leukemia and with RXF 393 renal was greater than 10 µM in each case. The TGI in the assay on UACC-257 melanoma is greater than 10 µM.
Regarding `Brc1ccc(C[N+]23CN4CN(CN(C4)C2)C3)cc1`, the total growth inhibition concentration (TGI) with SK-OV-3 ovarian was greater than 100 µM; with SW-620 colon, 82.3 µM; in the assay with SF-539 CNS, greater than 100 µM; in the assay with UO-31 renal, greater than 100 µM; in the assay with K-562 leukemia, greater than 100 µM; with RXF 393 renal it was 34.6 µM. This compound returned a total growth inhibition concentration (TGI) in the assay with UACC-257 melanoma greater than 100 µM.
As for `Cc1cc2nc(CC(C(F)(F)F)C(F)(F)F)oc2cc1C`, the total growth inhibition concentration (TGI) is greater than 44.4 µM with SK-OV-3 ovarian; 2.83 µM with SW-620 colon; 7.66 µM in the assay on SF-539 CNS; 26.2 µM in the assay on UO-31 renal; 6.92 µM with OVCAR-4 ovarian; 16.4 µM in the assay with DU-145 prostate. For the same compound, the TGI came out at 9.73 µM with RXF 393 renal and 9.55 µM in the assay with UACC-257 melanoma.
Take `COc1ccc(C=NCCCN=Cc2ccc(OC)cc2O)c(O)c1`: the TGI with SW-620 colon, in the assay with UO-31 renal, in the assay with OVCAR-4 ovarian, in the assay with DU-145 prostate, in the assay with K-562 leukemia and in the assay on RXF 393 renal was greater than 100 µM in each case. In the assay with UACC-257 melanoma, this compound gave a TGI greater than 100 µM.
As to `CC(=O)N1CCN(CCCCN2c3ccccc3Sc3cc(N=[N+]=[N-])ccc32)CC1`, the TGI in the assay on SW-620 colon stood at 29.3 µM; in the assay with SF-539 CNS, 31.8 µM; in the assay with UO-31 renal it was 23.5 µM; in the assay with DU-145 prostate, 32.1 µM; with K-562 leukemia, 31.3 µM; with RXF 393 renal it was 24.4 µM. In the assay with UACC-257 melanoma, this compound displayed a concentration for total growth inhibition (TGI) of 40.2 µM.
`O=C(NCCC1CN(S(=O)(=O)C(F)(F)F)c2ccccc21)OCc1ccccc1` (stereo unspecified): the TGI in the assay with SK-OV-3 ovarian, in the assay with SW-620 colon, in the assay on UO-31 renal, in the assay with OVCAR-4 ovarian, with DU-145 prostate and with K-562 leukemia was greater than 100 µM each time. Further, the concentration for total growth inhibition (TGI) in the assay on RXF 393 renal and with UACC-257 melanoma was greater than 100 µM each time.
`Cc1ccc(Cc2n[nH]c(=O)n2N2C(=O)c3ccccc3C2=O)cc1`: the total growth inhibition concentration (TGI) in the assay on SW-620 colon, in the assay with SF-539 CNS, in the assay with UO-31 renal, with OVCAR-4 ovarian, in the assay with DU-145 prostate and in the assay on K-562 leukemia was greater than 100 µM in each case. Also, in the assay with UACC-257 melanoma, the concentration for total growth inhibition (TGI) is greater than 100 µM.
For the compound `Cc1ccc(S(=O)(=O)NCCCSCCO)cc1`, the total growth inhibition concentration (TGI) in the assay with SK-OV-3 ovarian, with SW-620 colon, with UO-31 renal, with OVCAR-4 ovarian, with DU-145 prostate and with K-562 leukemia was greater than 100 µM throughout. In addition, the TGI in the assay on RXF 393 renal and with UACC-257 melanoma was greater than 100 µM throughout.
As to `CNC(=O)c1cc(Oc2cccc3nc(NC(=O)Nc4ccc(F)cc4F)ccc23)ccn1`, in the assay with RXF 393 renal, the GI50 was 1.24 µM and the total growth inhibition concentration (TGI) came out at 2.99 µM.
